Assay results reported in patent publication US11912701B2, “Protein kinase inhibitors for promoting liver regeneration or reducing or preventing hepatocyte death” (HEPAREGENIX GMBH, priority 2018, dated 2024).

Experiments:
MKK4 [1] = target: T1, MKK4 (Homo sapiens, UniProt P45985); test: KINOMEscan competition binding assay, MKK4; details: residual percent of control binding (PoC) at 100 nM
T1 construct: S84/D399; host or cells: HEK-293
T1 sequence (P45985 84-399): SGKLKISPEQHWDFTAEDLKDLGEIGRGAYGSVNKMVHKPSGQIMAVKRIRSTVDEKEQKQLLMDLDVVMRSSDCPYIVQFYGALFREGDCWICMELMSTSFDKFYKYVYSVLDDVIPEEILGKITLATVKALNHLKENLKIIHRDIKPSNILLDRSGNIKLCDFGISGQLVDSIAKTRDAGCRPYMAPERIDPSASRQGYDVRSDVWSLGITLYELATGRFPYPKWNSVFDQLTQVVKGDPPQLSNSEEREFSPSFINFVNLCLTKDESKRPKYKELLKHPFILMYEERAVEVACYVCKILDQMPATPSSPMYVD
Summary of the method: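 Tested at 100 nM and reported as percent of control binding (PoC). MKK4 was produced in HEK-293 cells and DNA-tagged. Displacement from ligand-coated, blocked beads was read by qPCR of eluted kinase.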

BRaf [2] = target: T2, BRaf (Homo sapiens, UniProt P15056); test: KINOMEscan competition binding assay, BRaf; details: ratio PoC (off-target)/PoC (MKK4)
T2 construct: purchased ProQinase GmbH, Freiburg, Germany (33PanQinase Assay Service)
T2 sequence (P15056 whole entry, species assumed): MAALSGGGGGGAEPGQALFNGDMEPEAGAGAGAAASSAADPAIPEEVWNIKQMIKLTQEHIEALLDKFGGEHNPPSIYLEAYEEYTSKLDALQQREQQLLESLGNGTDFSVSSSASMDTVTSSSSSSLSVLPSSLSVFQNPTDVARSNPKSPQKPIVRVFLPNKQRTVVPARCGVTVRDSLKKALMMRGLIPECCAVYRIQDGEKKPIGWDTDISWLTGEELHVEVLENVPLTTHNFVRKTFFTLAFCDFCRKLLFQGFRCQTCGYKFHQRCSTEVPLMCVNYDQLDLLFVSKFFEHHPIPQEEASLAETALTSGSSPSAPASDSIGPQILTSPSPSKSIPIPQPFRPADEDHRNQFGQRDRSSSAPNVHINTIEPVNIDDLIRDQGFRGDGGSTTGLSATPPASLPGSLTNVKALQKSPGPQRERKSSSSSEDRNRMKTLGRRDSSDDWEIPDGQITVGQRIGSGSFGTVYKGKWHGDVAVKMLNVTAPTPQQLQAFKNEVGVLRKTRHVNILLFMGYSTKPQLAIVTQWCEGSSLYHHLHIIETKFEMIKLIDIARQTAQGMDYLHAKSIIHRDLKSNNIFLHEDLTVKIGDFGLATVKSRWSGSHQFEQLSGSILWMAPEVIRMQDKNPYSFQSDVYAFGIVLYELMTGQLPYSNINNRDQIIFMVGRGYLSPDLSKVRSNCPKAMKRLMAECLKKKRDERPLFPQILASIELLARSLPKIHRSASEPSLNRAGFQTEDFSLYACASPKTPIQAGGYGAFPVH
Summary of the method: (§1)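 DNA-tagged kinases expressed in HEK-293 cells compete between immobilized ligand on blocked beads and test compound at 100 nM; kinase retained on beads quantified by qPCR of the tag.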

JNK1 [3] = target: T3, JNK1 (Homo sapiens, UniProt P45983); test: KINOMEscan competition binding assay, JNK1; design: M1/Q384; host or cells: HEK-293; details: ratio PoC (off-target)/PoC (MKK4)
Summary of the method: as §1
Target sequence in this assay (P45983 1-384 isoform P45983-2): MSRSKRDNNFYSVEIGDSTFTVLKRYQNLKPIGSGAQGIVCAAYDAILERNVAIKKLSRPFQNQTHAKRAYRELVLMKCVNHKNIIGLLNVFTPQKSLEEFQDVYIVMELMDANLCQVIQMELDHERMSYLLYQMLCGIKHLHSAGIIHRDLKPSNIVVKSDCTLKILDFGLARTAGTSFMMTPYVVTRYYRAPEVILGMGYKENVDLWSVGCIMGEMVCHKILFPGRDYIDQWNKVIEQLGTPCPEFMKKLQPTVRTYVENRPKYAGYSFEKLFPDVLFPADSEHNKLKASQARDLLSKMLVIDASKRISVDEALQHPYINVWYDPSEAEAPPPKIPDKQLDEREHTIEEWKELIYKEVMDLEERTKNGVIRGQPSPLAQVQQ

JNK1 [4] = target: T3, JNK1; test: 33PanQinase enzyme assay, JNK1; assay type: biochemical; design: purchased ProQinase GmbH, Freiburg, Germany (33PanQinase Assay Service); details: ratio IC50(JNK1)/IC50(MKK4)
Summary of the method: (§2)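 33Pi incorporation, read by microplate scintillation counting, measured kinase activity after 60 min at 30 °C. Reactions were quenched with 2% (v/v) H3PO4 and washed with 0.9% NaCl. IC50 derived by least-squares fitting; single doses reported as % residual activity.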
Target sequence in this assay (P45983 whole entry): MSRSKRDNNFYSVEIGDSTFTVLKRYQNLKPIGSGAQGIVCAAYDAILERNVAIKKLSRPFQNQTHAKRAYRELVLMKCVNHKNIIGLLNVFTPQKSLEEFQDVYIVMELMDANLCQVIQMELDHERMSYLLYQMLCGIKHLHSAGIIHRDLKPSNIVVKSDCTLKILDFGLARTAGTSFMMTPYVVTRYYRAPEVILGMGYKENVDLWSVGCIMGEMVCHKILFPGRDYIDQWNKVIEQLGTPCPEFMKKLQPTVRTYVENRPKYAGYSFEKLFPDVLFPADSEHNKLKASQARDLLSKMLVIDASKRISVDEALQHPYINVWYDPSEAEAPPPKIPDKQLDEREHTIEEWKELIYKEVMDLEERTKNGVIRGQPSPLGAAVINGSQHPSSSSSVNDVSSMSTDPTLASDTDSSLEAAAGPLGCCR

MKK7 [5] = target: T4, MKK7 (Homo sapiens, UniProt O14733); test: 33PanQinase enzyme assay, MKK7; assay type: biochemical; design: purchased ProQinase GmbH, Freiburg, Germany (33PanQinase Assay Service); details: ratio IC50(MKK7)/IC50(MKK4)
T4 sequence (O14733 1-419): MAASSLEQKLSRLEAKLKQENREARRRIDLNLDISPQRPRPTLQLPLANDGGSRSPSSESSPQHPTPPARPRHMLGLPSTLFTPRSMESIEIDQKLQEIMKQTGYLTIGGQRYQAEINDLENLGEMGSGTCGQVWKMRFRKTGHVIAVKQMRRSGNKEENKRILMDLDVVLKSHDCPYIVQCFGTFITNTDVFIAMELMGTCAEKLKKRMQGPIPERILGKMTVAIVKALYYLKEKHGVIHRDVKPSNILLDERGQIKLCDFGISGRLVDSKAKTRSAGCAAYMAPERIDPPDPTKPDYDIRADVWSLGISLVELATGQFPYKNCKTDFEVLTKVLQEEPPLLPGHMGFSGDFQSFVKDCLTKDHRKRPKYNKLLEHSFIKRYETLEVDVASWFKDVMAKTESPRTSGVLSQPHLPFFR
Summary of the method: as §2

BRaf [6] = target: T2, BRaf; test: 33PanQinase enzyme assay, BRaf; assay type: biochemical; details: ratio IC50(BRaf)/IC50(MKK4)
Summary of the method: as §2

MKK4 [7] = target: T5, MKK4 (Homo sapiens, UniProt P45985); test: 33PanQinase enzyme assay, MKK4; assay type: biochemical; details: assay 'IC50'; read-out: Potency MKK4 (IC50)
T5 construct: purchased ProQinase GmbH, Freiburg, Germany (33PanQinase Assay Service)
T5 sequence (P45985 1-399): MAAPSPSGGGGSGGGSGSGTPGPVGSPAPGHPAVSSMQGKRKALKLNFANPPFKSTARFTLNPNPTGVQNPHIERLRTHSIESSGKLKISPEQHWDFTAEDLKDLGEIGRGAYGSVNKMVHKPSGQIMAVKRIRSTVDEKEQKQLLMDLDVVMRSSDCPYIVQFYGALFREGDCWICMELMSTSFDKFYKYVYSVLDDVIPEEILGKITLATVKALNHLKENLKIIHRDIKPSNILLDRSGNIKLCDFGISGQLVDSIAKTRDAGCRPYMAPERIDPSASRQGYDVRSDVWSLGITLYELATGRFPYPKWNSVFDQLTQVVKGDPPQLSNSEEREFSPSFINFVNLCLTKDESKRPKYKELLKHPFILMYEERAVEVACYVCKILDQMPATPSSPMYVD
Summary of the method: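 Inhibition measured as 33Pi transfer to substrate after a 60-min, 30 °C reaction, acid-stopped and scintillation-counted.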

MKK7 [8] = target: T4, MKK7; test: KINOMEscan competition binding assay, MKK7; design: M1/R419; host or cells: HEK-293; details: ratio PoC (off-target)/PoC (MKK4)
Summary of the method: as §1

SMILES	MKK4 [% Ctrl @ 100 nM (MKK4 [1])	selectivity based on % Ctrl @100 nM vs. Braf (BRaf [2])	selectivity based on % Ctrl @100 nM vs. JNK1 (JNK1 [3])	Selectivity JNK1, IC50(off-target)/IC50(MKK4) (JNK1 [4])	Selectivity IVIKK7, IC50(off-target)/IC50(MKK4) (MKK7 [5])	Selectivity Braf, IC50(off-target)/IC50(MKK4) (BRaf [6])	IC50 (MKK4 [7]) [µM]	selectivity based on % Ctrl @100 nM vs. MKK7 (MKK7 [8])
O=C(c1ccc(F)c(NS(=O)(=O)CCC(F)(F)F)c1F)c1c[nH]c2ncc(-c3cnc(N4CCC4)nc3)cc12 [Example 180, N-(3(5-(2-(azetidin-1-yl)pyrimidin-5-yl)-1H-pyrrolo[2,3-b]pyridine-3-carbonyl)-2,6-difluorophenyl)-3,3,3-trifluoropropane-1-sulfonamide]	+++ (PoC < 1)	+++ (Ratio > 100)	+++ (Ratio > 100)	+++ (IC50(off-target)/IC50(MKK4) > 100)	+++ (IC50(off-target)/IC50(MKK4) > 100)	+++ (IC50(off-target)/IC50(MKK4) > 100)	< 0.1	+++ (Ratio > 100)
O=C(c1ccc(F)c(NS(=O)(=O)CCC(F)(F)F)c1F)c1c[nH]c2ncc(-c3cnc(N4CCCCC4)nc3)cc12 [Example 181, N-(2,6-difluoro-3-(5-(2-(piperidin-1-yl)pyrimidin-5-yl)-1H-pyrrolo[2,3-b]pyridine-3-carbonyl)phenyl)-3,3,3-trifluoropropane-1-sulfonamide]	+++ (PoC < 1)	+++ (Ratio > 100)	+++ (Ratio > 100)	++ (100 ≥ IC50(off-target)/IC50(MKK4) > 10)	+++ (IC50(off-target)/IC50(MKK4) > 100)	+++ (IC50(off-target)/IC50(MKK4) > 100)	0.1 to 1	+++ (Ratio > 100)
O=C(c1ccc(F)c(NS(=O)(=O)CCC(F)(F)F)c1F)c1c[nH]c2ncc(-c3cnc(NC4CC4)nc3)cc12 [Example 182]	+++ (PoC < 1)	+++ (Ratio > 100)	+++ (Ratio > 100)	+++ (IC50(off-target)/IC50(MKK4) > 100)	+++ (IC50(off-target)/IC50(MKK4) > 100)	+++ (IC50(off-target)/IC50(MKK4) > 100)	< 0.1	+++ (Ratio > 100)
CCCS(=O)(=O)Nc1c(F)ccc(C(=O)c2c[nH]c3ncc(-c4cnc(C(F)(F)F)nc4)cc23)c1F [Example 184, N-(2,6-difluoro-3-(5-(2-(trifluoromethyl)pyrimidin-5-yl)-1H-pyrrolo[2,3-b]pyridine-3-carbonyl)phenyl)propane-1-sulfonamide]	+++ (PoC < 1)	+++ (Ratio > 100)	+++ (Ratio > 100)	++ (100 ≥ IC50(off-target)/IC50(MKK4) > 10)	+++ (IC50(off-target)/IC50(MKK4) > 100)	+++ (IC50(off-target)/IC50(MKK4) > 100)	0.1 to 1	+++ (Ratio > 100)
CCCS(=O)(=O)Nc1c(F)ccc(C(=O)c2c[nH]c3ncc(-c4cnc(Cl)cn4)cc23)c1F [Example 211, N-(3-(5-(5-chloropyrazin-2-yl)-1H-pyrrolo[2,3-b]pyridine-3-carbonyl)-2,6-difluorophenyl)propane-1-sulfonamide]	+++ (PoC < 1)	+++ (Ratio > 100)	+++ (Ratio > 100)	++ (100 ≥ IC50(off-target)/IC50(MKK4) > 10)	+++ (IC50(off-target)/IC50(MKK4) > 100)	+++ (IC50(off-target)/IC50(MKK4) > 100)	0.1 to 1	+++ (Ratio > 100)
CCCS(=O)(=O)Nc1c(F)ccc(C(=O)c2c[nH]c3ncc(-c4ccc(C)nc4)cc23)c1F [Example 229, N-(2,6-difluoro-3-(5-(6-methylpyridin-3-yl)-1H-pyrrolo[2,3-b]pyridine-3-carbonyl)phenyl)propane-1-sulfonamide]	+++ (PoC < 1)	+++ (Ratio > 100)	+++ (Ratio > 100)	+++ (IC50(off-target)/IC50(MKK4) > 100)	+++ (IC50(off-target)/IC50(MKK4) > 100)	+++ (IC50(off-target)/IC50(MKK4) > 100)	< 0.1	+++ (Ratio > 100)
CCCS(=O)(=O)Nc1c(F)ccc(C(=O)c2c[nH]c3ncc(-c4ccc(C(F)(F)F)nc4)cc23)c1F [Example 230, N-(2,6-difluoro-3-(5-(6-(trifluoromethyl)pyridin-3-yl)-1H-pyrrolo[2,3-b]pyridine-3-carbonyl)phenyl)propane-1-sulfonamide]	+++ (PoC < 1)	+++ (Ratio > 100)	+++ (Ratio > 100)	+++ (IC50(off-target)/IC50(MKK4) > 100)	+++ (IC50(off-target)/IC50(MKK4) > 100)	+++ (IC50(off-target)/IC50(MKK4) > 100)	< 0.1	+++ (Ratio > 100)
